These results are taken from patent US20260256870A1, “SKIN COMPOSITION” (Eaderm Co., Ltd., priority 2019, published 2026).

“Also recorded” adds a separate entry of the source.

Data set [1] relates to COL17A1. The data set is described as follows: Stabilization of COL17A1 against UV-induced repression.
For data set [2], the system named is COL17A1. As to the kind of experiment: COL17A1 expression in human epidermal keratinocytes by high content imaging (HCS). The data set is classed as cell-based. The protocol: The present inventors further searched for substances that induce or maintain the expression of COL17A1. Human epidermal keratinocytes were seeded in 384-well plates, cultured for 48 hours after addition of reagents, immunostained with an anti-COL17A1 antibody and a fluorescently labeled secondary antibody, and then the fluorescence intensity per cell was detected using a high content imaging system (HCS: High Content Screening). In addition to cell counting with DAPI, the expression level of COL17A1 was quantified.

The next data set deals with UVB-irradiated back skin. As to the kind of experiment: Barrier function after UVB irradiation (Example 12). The data set is classed as in vivo, Hairless mice HOS: HR-1. The note with it: for water content of the stratum corneum after ultraviolet irradiation: UVB 150 mJ/cm^2, fourth day (FIG. 21). The procedure:
Hairless mice HOS: HR-1 females (7 weeks old) were acclimatized to the experimental environment and then grouped into the 6 groups below, so that the body weight values were nearly uniform. • No ultraviolet irradiation group (n=2) • Ultraviolet (UVB) irradiation+solvent application group (n=4). • Ultraviolet (UVB) irradiation+200 nM apocynin application group (n=4). • Ultraviolet (UVB) irradiation+200 μM apocynin application group (n=4). • Ultraviolet (UVB) irradiation+2 μM Y-27632 application group (n=4). • Ultraviolet (UVB) irradiation+20 μM Y-27632 application group (n=4) In the above solution application group, aqueous solutions of each preparation were applied to hairless mice on their back once a day for five days, starting from the day before ultraviolet irradiation. UVB irradiation was carried out using a Yayoi ultraviolet irradiation system (Y-UV-Lab-K-D5 lamp type) at an intensity of 150 mJ/cm^2 once a day. The stratum corneum water content and TEWL of the irradiated area were measured for each group of mice on the fourth day after the start of ultraviolet irradiation. The measurements were performed using Corneometer CM825 and Tewameter TN300 (Courage+Khazaka, Integral Corporation, Germany) at specific sites on the back of the mice.

In data set [3] the test system is full thickness wounds in the skin of rodent tails. The data set is described as follows: Full thickness wound healing in tail skin. The data set is classed as in vivo, mice. The following applies: day 0, day 14, day 21 (FIG. 12). The protocol: To test the above hypothesis, the present inventors performed a full-layer wound healing experiment using the tail skin of aged wild-type mice. […] Forced expression of hCOL17A1 by basal layer keratinocytes in mice also promoted wound healing (FIG. 12). […] To confirm the beneficial effects in vivo, these drugs were administered to full thickness wounds in the skin of rodent tails.

In data set [4] the test system is human epidermal keratinocytes. The data set is described as follows: Colony formation assay using human epidermal keratinocytes. The data set is classed as cell-based. The source says:
To test whether COL17A1-mediated SCD maintains clonal proliferation of epidermal stem cell clones, the present inventors used a colony formation assay, which is an in vitro assay said to be the gold standard for assessing the self-renewal ability of epidermal stem cells, including cells in the tail epidermis.

Data set [5] relates to skin damage induced by erlotinib. The data set is described as follows: Improvement of skin damage caused by erlotinib administration, TEWL (Example 10). The data set is classed as in vivo, C57BL6N mice. The note with it: erlotinib 50 mg/kg/day intraperitoneal, 7 weeks old or 6 months old mice (FIG. 19). The procedure:
Female […] mice (7 weeks old or 6 months old) were acclimatized to the experimental environment, and then hair was removed from their back under anesthesia. […] The control non-administered group received the 0.5% methylcellulose solution of the solvent in the same way. The control group applied with the solvent and the group applied with 200 μM apocynin received an aqueous solution of each preparation once a day, five times a week on the back. To the control solvent application group the solvent (50% ethanol/PBS) of apocynin was similarly applied.

Data set [6] relates to skin damage induced by anticancer drugs. As to the kind of experiment: TEWL after EGF receptor inhibitor administration (Example 9). The note with it: control mice about 18 months old, 50 mg/kg/day intraperitoneal, day 7 (FIG. 18). The source says: A 0.5% methylcellulose solution of the solvent was similarly administered to the control non-treated group. […] Measurements were taken at specific sites on the back of the mice (two sites symmetrically located on the left side and right side from the center of the spine) using Tewameter TN300 (Courage+Khazaka, Integral Corporation, Germany).

In data set [7] the test system is UV-induced wrinkles of back skin. The data set is described as follows: Wrinkle improvement after UV irradiation (Example 15). The format is in vivo, Hairless mice HOS: HR-1. The note with it: UVA+UVB, retinol 0.1%, apocynin 200 μM, long-term application (FIG. 25). The source says:
In a mouse model in which wrinkle formation was induced by long-term exposure to ultraviolet (UVA) light, the present inventors examined the effect of substances that promote the self-renewal ability of epidermal stem cells on the improvement of wrinkles.
Hairless mice HOS: HR-1 females (7 weeks old) were acclimated to the experimental environment and then grouped into the […] groups below, so that their body weight values would be nearly uniform. • No UV irradiation group (n=2). • UV (UVA+UVB) irradiation+solvent application group (n=4) • Ultraviolet (UVA+UVB) irradiation+200 μM apocynin application group (n=4). • UV (UVA+UVB) irradiation+0.1% retinol application group (n=2) […]
For each group of mice from the first to the fourth week after the start of UV irradiation, the back was photographed with a high-resolution three-dimensional image analyzer PRIMOS-CR (Canfield Scientific, Inc., USA). Based on the images obtained, total wrinkle volume (mm^3) and total wrinkle mean depth (μm) were measured with the Primos OMC3_22 software. Skin flexibility was measured using Cutometer MPA580 (Courage+Khazaka, Integral Corporation, Germany), and the value of RO was used as skin flexibility.

The subject of the next data set is back skin. As to the kind of experiment: Skin elasticity and TEWL after long-term application (Example 14). The data set is classed as in vivo, hairless mice (HOS: HR-1). The note with it: three times a week for seven weeks, day 53; retinol 0.1%, apocynin 200 μM (FIG. 23).
In data set [8] the test system is COL17A1. The note with it: HaCaT cells, 24 hours after hydrogen peroxide treatment (FIG. 17).
Description: The anticancer agent hydroxyurea was administered to 7-week-old C57BL6 mice three times a month, and the tissues were collected three months later for immunostaining using an antibody for COL17A1. […] In addition, HaCaT cells, which are human epidermal keratinocytes, were irradiated with radiation (20 Gy, 30 Gy) and UV light (20 mJ, 30 mJ) and the cells were collected after 24 and 72 hours, respectively, and Western blotting was performed using an antibody against COL17A1.

For `CNC(=O)[C@@H](NC(=O)[C@H](CC(C)C)[C@H](O)C(=O)NO)C(C)(C)C` [Marimastat], the “COL17A1 stability / UV-induced downward repression of COL17A1” value with COL17A1 [1] is “stabilizes COL17A1 and blocks the UV-induced downward repression of COL17A1”.
In the case of `C[C@@H](N)[C@H]1CC[C@H](C(=O)Nc2ccncc2)CC1` [Y-27632], the “COL17A1 expression level (control ratio)” value in the data set on COL17A1 [2] (Table 1, human epidermal keratinocytes, 48 hours after addition of reagents, fluorescence intensity per cell) was “⊚⊚ (two double circles (⊚⊚) in the COL17A1 expression level (control ratio) represent a 2.0-fold or greater increase in the expression level)”. Besides, the “COL17A1 expression / amount of COL17A1 in cultured keratinocytes compared to the control” value in the data set with COL17A1 [2] (in vitro, HCS (FIG. 15)) was “maintain or induce the COL17A1 expression; also recorded: induce the COL17A1 expression”. Moreover, the “water content of the stratum corneum after ultraviolet irradiation” value in the data set with UVB-irradiated back skin (2 μM applied) and in the data set with UVB-irradiated back skin (20 μM applied) was “significantly higher” in each case. The “TEWL after ultraviolet irradiation” value in the data set on UVB-irradiated back skin (20 μM administration group, UVB, fourth day (FIG. 21)) was “significantly lower”. Further, the entries for the “wound repair (unrepaired wound area)” value in data set [3] and in data set [3] (listed as Y27632) were “significantly accelerated” and “significantly promote the wound repair process”, respectively. Moreover, in data set [4] (Table 1), the “Colony area (control ratio)” value is recorded as “⊚ (one double circle (⊚) indicates maintenance of 1.0-1.2-fold)”. For the same compound, the “Colony number (control ratio)” value in data set [4] (Table 1) is on record as “⊚ (one double circle (⊚) indicates maintenance of 1.0-1.2-fold)”. Besides, the number of colonies entry in data set [4] (compared to the control, n=3 wells (FIG. 13, FIG. 16)) is “significantly increased”. Further, in data set [4] (compared to the control, n=3 wells (FIG. 14)), the “average size of the top five colonies” value is “significantly increased”. Also, the colony size result in data set [4] (human epidermal keratinocytes) was “significantly increased”. For the same compound, the “number of colonies with a diameter greater than 2 mm” value in [4] (n=3 wells (FIG. 13 right)) is given as “significantly increased”.
Turning to `C#Cc1cccc(Nc2ncnc3cc(OCCOC)c(OCCOC)cc23)c1` [Erlotinib], the TEWL result in data set [5] and in data set [6] was “significantly increased” each time.
`CC1=C(/C=C/C(C)=C/C=C/C(C)=C/CO)C(C)(C)CCC1` [Retinol]: the results for the TEWL entry in data set [7] and in [7] (listed as retinol) were “significantly increased” and “marked increase”, respectively. In addition, the “TEWL after long-term continuous application” value in the data set on back skin was “significantly increased”.
`OO` [hydrogen peroxide]: the “expression of COL17A1 (Western blot)” value with COL17A1 [8] is recorded as “marked decrease”.
